Assays:
Experiment in all cases: viability relative to DMSO control (fraction); higher = less drug effect (more viable cells)
Conditions in all cases: 48 h
Idarubicin = compound: CC(=O)[C@]1(O)Cc2c(O)c3c(c(O)c2[C@@H](O[C@H]2C[C@H](N)[C@H](O)[C@H](C)O2)C1)C(=O)c1ccccc1C3=O [Idarubicin]
Summary of the method: (§1)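 Primary mononuclear tumour cells (Ficoll-isolated from blood or bone marrow, or processed lymph node; fresh or cryopreserved) were plated at 4 × 10^4 cells per well in 384-well plates with pre-plated compounds at five concentrations, one well each. Medium was RPMI-1640 with penicillin/streptomycin, L-glutamine and human serum, at 37 °C and 5% CO2 for 48 h. Viability was read as CellTiter-Glo luminescence relative to the median of 16 inner DMSO wells.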

[1] = compound: CC(C)(C)OC(=O)Nc1ccc(-c2cc(C(=O)NCCCCCCC(=O)NO)no2)cc1
Summary of the method: as §1

BEZ235 = compound: Cn1c(=O)n(-c2ccc(C(C)(C)C#N)cc2)c2c3cc(-c4cnc5ccccc5c4)ccc3ncc21 [BEZ235]
Summary of the method: as §1

Pentostatin = compound: OC[C@H]1O[C@@H](n2cnc3c2N=CNC[C@H]3O)C[C@@H]1O [Pentostatin]
Summary of the method: as §1

## primary MCL patient cells (S041)
Idarubicin; 0.024 µM
  viability: 0.985
Idarubicin; 0.12 µM
  viability: 0.462
Idarubicin; 0.6 µM
  viability: 0.0191
Idarubicin; 3 µM
  viability: 0.0267
Idarubicin; 15 µM
  viability: 0.0135
[1]; 0.024 µM
  viability: 1.02
[1]; 0.12 µM
  viability: 0.884
[1]; 0.6 µM
  viability: 0.65
[1]; 3 µM
  viability: 0.221
[1]; 15 µM
  viability: 0.0737
BEZ235; 0.024 µM
  viability: 0.89
BEZ235; 0.12 µM
  viability: 0.963
BEZ235; 0.6 µM
  viability: 0.85
BEZ235; 3 µM
  viability: 0.847
BEZ235; 15 µM
  viability: 0.322
Pentostatin; 0.03 µM
  viability: 0.958
Pentostatin; 0.15 µM
  viability: 0.939
Pentostatin; 0.75 µM
  viability: 0.905
Pentostatin; 3.75 µM
  viability: 0.904
Pentostatin; 18.76 µM
  viability: 0.816

## primary MCL patient cells (S053)
Idarubicin; 0.024 µM
  viability: 0.518
Idarubicin; 0.12 µM
  viability: 0.298
Idarubicin; 0.6 µM
  viability: 0.283
Idarubicin; 3 µM
  viability: 0.529
Idarubicin; 15 µM
  viability: 0.162
[1]; 0.024 µM
  viability: 0.605
[1]; 0.12 µM
  viability: 0.463
[1]; 0.6 µM
  viability: 0.239
[1]; 3 µM
  viability: 0.098
[1]; 15 µM
  viability: 0.0587
BEZ235; 0.024 µM
  viability: 0.984
BEZ235; 0.12 µM
  viability: 1.17
BEZ235; 0.6 µM
  viability: 0.95
BEZ235; 3 µM
  viability: 1.05
BEZ235; 15 µM
  viability: 0.549
Pentostatin; 0.03 µM
  viability: 0.873
Pentostatin; 0.15 µM
  viability: 0.831
Pentostatin; 0.75 µM
  viability: 0.81
Pentostatin; 3.75 µM
  viability: 0.757
Pentostatin; 18.76 µM
  viability: 0.675

## primary MCL patient cells (S063)
Idarubicin; 0.024 µM
  viability: 1.11
Idarubicin; 0.12 µM
  viability: 0.475
Idarubicin; 0.6 µM
  viability: 0.0231
Idarubicin; 3 µM
  viability: 0.0118
Idarubicin; 15 µM
  viability: 0.0146
[1]; 0.024 µM
  viability: 1.05
[1]; 0.12 µM
  viability: 1
[1]; 0.6 µM
  viability: 0.859
[1]; 3 µM
  viability: 0.24
[1]; 15 µM
  viability: 0.0207
BEZ235; 0.024 µM
  viability: 0.934
BEZ235; 0.12 µM
  viability: 1.11
BEZ235; 0.6 µM
  viability: 0.907
BEZ235; 3 µM
  viability: 0.971
BEZ235; 15 µM
  viability: 0.578
Pentostatin; 0.03 µM
  viability: 0.96
Pentostatin; 0.15 µM
  viability: 0.997
Pentostatin; 0.75 µM
  viability: 0.972
Pentostatin; 3.75 µM
  viability: 0.927
Pentostatin; 18.76 µM
  viability: 0.868

## primary MCL patient cells (S068)
Idarubicin; 0.024 µM
  viability: 0.835
Idarubicin; 0.12 µM
  viability: 0.457
Idarubicin; 0.6 µM
  viability: 0.154
Idarubicin; 3 µM
  viability: 0.017
Idarubicin; 15 µM
  viability: 0.021
[1]; 0.024 µM
  viability: 0.812
[1]; 0.12 µM
  viability: 0.533
[1]; 0.6 µM
  viability: 0.216
[1]; 3 µM
  viability: 0.115
[1]; 15 µM
  viability: 0.0907
BEZ235; 0.024 µM
  viability: 1.1
BEZ235; 0.12 µM
  viability: 1.25
BEZ235; 0.6 µM
  viability: 1.16
BEZ235; 3 µM
  viability: 1.45
BEZ235; 15 µM
  viability: 0.982
Pentostatin; 0.03 µM
  viability: 0.654
Pentostatin; 0.15 µM
  viability: 0.644
Pentostatin; 0.75 µM
  viability: 0.736
Pentostatin; 3.75 µM
  viability: 0.526
Pentostatin; 18.76 µM
  viability: 0.448

## primary T-PLL patient cells (S008)
Idarubicin; 0.024 µM
  viability: 0.918
Idarubicin; 0.12 µM
  viability: 0.591
Idarubicin; 0.6 µM
  viability: 0.128
Idarubicin; 3 µM
  viability: 0.0427
Idarubicin; 15 µM
  viability: 0.03
[1]; 0.024 µM
  viability: 0.97
[1]; 0.12 µM
  viability: 0.973
[1]; 0.6 µM
  viability: 1.01
[1]; 3 µM
  viability: 0.848
[1]; 15 µM
  viability: 0.704
BEZ235; 0.024 µM
  viability: 0.969
BEZ235; 0.12 µM
  viability: 0.967
BEZ235; 0.6 µM
  viability: 0.927
BEZ235; 3 µM
  viability: 0.941
BEZ235; 15 µM
  viability: 0.308
Pentostatin; 0.03 µM
  viability: 1.04
Pentostatin; 0.15 µM
  viability: 0.989
Pentostatin; 0.75 µM
  viability: 1
Pentostatin; 3.75 µM
  viability: 0.892
Pentostatin; 18.76 µM
  viability: 0.917
